Data on one molecule can be found in patent US20060014699A1, “Aqueous pharmaceutical formulaton comprising the thrombin inhibitor melagatran and use of the formulation in the manufacture of a medicament for use by nasal administration in treating thromboembolism” (AstraZeneca AB, priority 2002, published 2006).

For orientation: bioavailability means the share of a dose that reaches the circulation, judged against a reference dose that is usually intravenous.

The nature of data set [1]: Bioavailability of intranasal melagatran in rats, with and without absorption enhancers. It counts as in vivo. The note with it: rat, inhaled or intranasal. On the procedure:
Using standard techniques, melagatran was administered to rats in formulations with and without the enhancers SDS (sodium dodecyl sulfate) or EDTA. The bioavailability was measured by analysis of blood plasma samples using standrad techniques.

The nature of data set [2]: Rate and extent of absorption after intranasal administration to healthy male subjects. It counts as in vivo, human. The settings on record: healthy male humans; for bioavailability: male, human, plasma, inhaled or intranasal. How it is done:
(§1) The rate and extent of absorption of melagatran as well as the safety and tolerability were investigated after intranasal administration to six healthy male subjects (between 20 and 40 years of age, body weight between 66 and 86 kg). The trial comprised three study days, separated by wash-out periods of 6-28 days. On study day 1, a single dose of 5 mg of melagatran was administered. The following two study days 10 mg and 20 mg, respectively, were administered.
(§2) Samples for determination of plasma concentration of melagatran (by LC-MS) and for degree of anticoagulation were collected before and up to 10 hours after drug administration. Safety measurements included blood pressure, heart rate and recording of adverse events.
(§3) The safety and tolerability of melagatran when administered nasally were considered satisfactory.

The nature of data set [3]: Safety and tolerability after intranasal administration to healthy male subjects. It counts as in vivo, human. The note with it: healthy male humans, nasal administration, 5, 10 and 20 mg; blood pressure, heart rate, adverse events. How it is done:
as §1, §2, §3

On to `N=C(N)c1ccc(CNC(=O)[C@@H]2CCN2C(=O)[C@H](NCC(=O)O)C2CCCCC2)cc1` [melagatran, HOOC—CH2—(R)-Cgl-Aze-Pab], for which the bioavailability in data set [1] (20 umol/kg, melagatran alone (no enhancer), blood plasma samples, read-out: bioavailability) is ~10%; in data set [1] (plasma, 20 μmol/kg, formulations with enhancers SDS or EDTA, read-out: bioavailability with enhancers), ≤ 19%; in data set [2] (5 mg, intranasal, single dose 5 mg, six subjects, read-out: median bioavailability), 19%; in data set [2] (10 mg, intranasal, single dose 10 mg, six subjects, read-out: median bioavailability), 12%; in data set [2] (20 mg, intranasal, 5, 10 and 20 mg, read-out: bioavailability, range over the six subjects at the three doses) it was 7 to 45%; in data set [2] (20 mg, intranasal, single dose 20 mg, six subjects, read-out: median bioavailability), 19%. For the same molecule, the “dose dependence of rate or extent of absorption” value in data set [2] (intranasal, 5, 10 and 20 mg) is recorded as “no indication of a dose dependent rate or extent of absorption”. The “absorption after intranasal administration (rate)” value in data set [2] (intranasal, 5-20 mg) is given as “rapid”. Moreover, the safety and tolerability entry in data set [3] is “satisfactory”.
